What was measured:
ICR mice [1] = assay: Mouse tail-hanging experiment (Experiment 5); assay type: in vivo
Method: 5.1 Experimental animals: ICR mice, male, 22.0±2 g of body weight, secondary, are provided by the Experimental Animal Science Department of Capital Medical University, Beijing. 5.2 Experiment pharmaceuticals: The pharmaceutical of Embodiment 3 is provided by Beijing Wonner Biotech. […] High dose of Embodiment 3 (80 mg/kg/d); 2. middle dose of Embodiment 3 (40 mg/kg/d); and 3. low dose of Embodiment 3 (20 mg/kg/d). 5.5.1 Group division and administration of drug: The mice are grouped randomly, and 10 mice are in each group. 1. High dose of Embodiment 3 (80 mg/kg, P.O., administered for 7 days); 2. middle dose of Embodiment 3 (40 mg/kg, P.O., administered for 7 days); 3. low dose of Embodiment 3 (20 mg/kg, P.O., administered for 7 days); 4. […] After 1 hour of the last administration of drug, the mouse tail-hanging experiment is proceeded. 5.5.2 Experimental method: The mouse's tail (1 cm to the tail end) is taped on the wood strip higher than the platform for 5 cm and hung up for 6 minutes. The time of non-movement of the mouse for the last 5 minutes is recorded. 5.5.3 Statistic calculation: The experimental data are represented as X+SD, and the experimental result is calculated as ANOVA by SPSS 11.5 statistic software.

[2] = Body weight measurement, unpredictable long-term stimulus model (Experiment 8); assay type: in vivo, rat; conditions: 2 mg/kg/d into the stomach, 24 days
Method: Unpredictable long-term stimulus model: Health Wistar male rats, secondary, 240˜270 g of body weight, are purchased from Beijing Vital River Experimental Animal Technology Ltd. Co. (The quality certificate number: SOCK (JING) 2002-2003).
The above pharmaceuticals are prepared with 0.5% of sodium carboxymethylcellulose (CMC-Na) for feeding into the stomach. Benzylpenicillin sodium for injection is the product of North China Pharmaceutical Huasheng Co. Ltd. (Lot: S0511204), and norepinephrine (NE) and 5-hydrotryptamine (5-HT) standards are the products of Sigma Co. Other reagents are all marketed.
8.4.1 Group division and administration of drug: The rats are grouped randomly into 6 groups. 1. False therapy group; 2. model group (control); 3. high dose of Embodiment 4 (60 mg/kg/d); 4. middle dose of Embodiment 4 (30 mg/kg/d); 5. low dose of Embodiment 4 (15 mg/kg/d); and 6. […] The test drugs and the positive control drug are prepared with 0.5% of CMC-Na for feeding into the stomach once every day.
Unpredictable long-term stimulus model: The rats in the control group eat and drink normally, and there is no stimulus performed. […]
(§1) 8.6 Statistic calculation: The experimental data are represented as […], and the experimental result is calculated as ANOVA by SPSS 11.5 statistic software.

ICR mice [3] = assay: Mouse tail-hanging test of the debris mixture (Experiment 11); assay type: in vivo; conditions: 3 mg/kg P.O. 7 days; 1 h after last dose; last 5 of 6 min
Source text: Nine (9) kg of the remained ginseng debris, 7 kg of the remained liquorice debris and 0.9 kg of the jujuba debris from the Embodiments 1 and 4 extraction procedures are collected, dried, pulverized, and mixed well for obtaining the debris mixture containing the trace amount of ginsenoside Rg1 and Rb1, glycyrrhizic acid and jujuba cAMP. The control experiment of examining the influence of the debris in the mouse tail-hanging test is proceeded. 11.1 Experimental animals: ICR mice, male, 22.0±2 g of body weight, secondary, are provided by the Experimental Animal Science Department of Capital Medical University, Beijing. 11.2 Experiment pharmaceuticals: The debris mixture is provided by Beijing Wonner Biotech. […] High dose of debris mixture (160 mg/kg/d); 2. middle dose of debris mixture (80 mg/kg/d); and 3. low dose of debris mixture (40 mg/kg/d). 11.5.1 Group division and administration of drug: The mice are grouped randomly with 10 mice in each group. 1. […] The time of non-movement of the mouse for the last 5 minutes is recorded. 11.5.3 Statistic calculation: The experimental data are represented as X±SD, and the experimental result is calculated as ANOVA by SPSS 11.5 statistic software.

[4] = system: unpredictable long-term stimulus model; assay: Step-through test (passive avoidance), unpredictable long-term stimulus model (Experiment 8); assay type: in vivo, rat; conditions: 2 mg/kg/d into the stomach, 24 days
Source text: 7.5.2 Passive avoidance experiment (Step-through test): The step through box is configured by the light chamber and the dark chamber, and a channel is linked between the bright chamber and the dark chamber for mouse entrance and exit. The grille of the dark chamber is connected to the electric shock equipment, and a mobile plate is set there between. If the rat enters into the dark chamber, the rat will be electrically shocked. During training, the rat is placed in the light chamber and is back in the hole for adaptation for 5 minutes. Then the plate is removed and the rat is observed for another 5 minutes. The time that the rat enters into for the first time is recorded (electric-shocking latent period), and the time thereof is the learning record. After 24 hours, the test is repeated. The plate is removed and the dark chamber is electrified for 5 minutes so as to observe the time that the rat enters into the dark chamber for the first time. This is thereof the memory record.
Unpredictable long-term stimulus model: Health Wistar male rats, secondary, 240˜270 g of body weight, are purchased from Beijing Vital River Experimental Animal Technology Ltd. Co. (The quality certificate number: SOCK (JING) 2002-2003). […]
as §1

In the case of `Fc1ccc([C@@H]2CCNC[C@H]2COc2ccc3c(c2)OCO3)cc1` [Paroxetine], the Time of non-movement (ICR mice [1]; 3 mg/kg P.O. 7 days, 1 h after last dose, last 5 of 6 min) is reported as 75.33 ± 22.91 s, the “Effect on time of non-movement after the mouse's tail is hung up (in words)” value (ICR mice [1]; high and middle doses of Embodiment 3, Paroxetine, significantly different from control) is reported as “decrease the time of non-movement” and the Increasing body weight [2] is reported as 96.85 ± 9.30 g. The Time of non-movement (ICR mice [3]) was 38.37 ± 20.76 s, the “Latent period of first day” value ([4]; learning record) was 75.75 ± 46.52 s and the “Latent period of second day” value ([4]; memory record) was 257.46 ± 66.92 s.

— US20100311674A1, “PHARMACEUTICAL COMPOSITIONS WITH A MECHANISM OF MULTI-TARGET RECEPTOR RETROACTION FOR TREATING DEPRESSION” (Yu-Fen Chi, priority 2007, published 2010)
